The target in test [1] is T1, sigma-2 receptor (sigma-2 sites) (Rattus norvegicus, UniProt Q5U3Y7).
T1 sequence (Q5U3Y7 1-176): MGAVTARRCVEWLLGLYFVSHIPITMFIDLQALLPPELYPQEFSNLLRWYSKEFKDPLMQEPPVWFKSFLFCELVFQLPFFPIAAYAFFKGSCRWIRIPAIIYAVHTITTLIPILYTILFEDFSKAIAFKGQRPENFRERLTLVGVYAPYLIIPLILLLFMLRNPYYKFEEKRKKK
The test can be described thus: Competitive displacement of [3H]-DTG binding, rat liver membranes. As to conditions: for KI sigma-2 sites: rat liver membranes in the presence of 100 nM (+)-pentazocine, [3H]-DTG; for sigma-2/sigma-1: ratio from the KI value of sigma-1 and sigma-2 sites (membranes).

In a further test the target is Sig-1R, sigma-1 receptor (Rattus norvegicus, UniProt Q9R0C9). Description: NIMH PDSP secondary binding assay.
For a further test, the target named is T2, Sig-2R, sigma-2 receptor (Rattus norvegicus, UniProt Q5U3Y7).
T2 sequence (Q5U3Y7 1-176): T1 sequence (Q5U3Y7 1-176)
The test can be described thus: NIMH PDSP secondary binding assay.

For test [2], the target named is T3, 5HT1A (serotonin receptor subtype 1A) (Homo sapiens, UniProt P08908).
T3 sequence (P08908 1-422): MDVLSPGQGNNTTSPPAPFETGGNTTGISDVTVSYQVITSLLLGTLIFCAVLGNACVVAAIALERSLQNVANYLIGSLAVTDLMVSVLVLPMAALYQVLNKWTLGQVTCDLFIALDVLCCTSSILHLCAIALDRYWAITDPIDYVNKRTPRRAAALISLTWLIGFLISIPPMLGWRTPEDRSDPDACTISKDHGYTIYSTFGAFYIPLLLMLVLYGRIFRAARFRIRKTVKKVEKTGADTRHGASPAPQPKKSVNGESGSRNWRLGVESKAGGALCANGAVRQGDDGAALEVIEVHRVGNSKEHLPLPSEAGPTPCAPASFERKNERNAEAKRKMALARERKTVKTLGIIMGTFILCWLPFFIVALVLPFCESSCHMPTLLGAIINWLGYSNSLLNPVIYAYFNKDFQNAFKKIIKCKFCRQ
Description: NIMH PDSP secondary binding assay. As to conditions: KI 5HT1A, NIMH PDSP; [3H]8-OH-DPAT/0.5 nM.

The target in test [3] is T4, α-1A (α-adrenergic receptor subtype 1A) (Homo sapiens, UniProt P35348).
T4 sequence (P35348 1-466): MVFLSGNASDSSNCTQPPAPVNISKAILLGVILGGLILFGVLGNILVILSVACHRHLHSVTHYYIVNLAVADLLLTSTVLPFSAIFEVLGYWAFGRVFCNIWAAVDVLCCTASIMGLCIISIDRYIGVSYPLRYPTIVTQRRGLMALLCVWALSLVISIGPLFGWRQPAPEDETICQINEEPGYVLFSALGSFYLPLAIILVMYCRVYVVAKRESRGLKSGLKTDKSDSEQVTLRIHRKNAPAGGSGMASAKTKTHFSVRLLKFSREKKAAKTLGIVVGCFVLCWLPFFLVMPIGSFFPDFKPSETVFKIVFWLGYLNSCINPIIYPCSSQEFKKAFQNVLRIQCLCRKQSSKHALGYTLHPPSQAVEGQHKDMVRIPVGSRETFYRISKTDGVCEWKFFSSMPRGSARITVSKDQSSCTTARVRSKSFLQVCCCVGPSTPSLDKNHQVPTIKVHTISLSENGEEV
Description: NIMH PDSP secondary binding assay.

In test [4] the target is T5, α-1D (α-adrenergic receptor subtype 1D) (Homo sapiens, UniProt P25100).
T5 sequence (P25100 1-572): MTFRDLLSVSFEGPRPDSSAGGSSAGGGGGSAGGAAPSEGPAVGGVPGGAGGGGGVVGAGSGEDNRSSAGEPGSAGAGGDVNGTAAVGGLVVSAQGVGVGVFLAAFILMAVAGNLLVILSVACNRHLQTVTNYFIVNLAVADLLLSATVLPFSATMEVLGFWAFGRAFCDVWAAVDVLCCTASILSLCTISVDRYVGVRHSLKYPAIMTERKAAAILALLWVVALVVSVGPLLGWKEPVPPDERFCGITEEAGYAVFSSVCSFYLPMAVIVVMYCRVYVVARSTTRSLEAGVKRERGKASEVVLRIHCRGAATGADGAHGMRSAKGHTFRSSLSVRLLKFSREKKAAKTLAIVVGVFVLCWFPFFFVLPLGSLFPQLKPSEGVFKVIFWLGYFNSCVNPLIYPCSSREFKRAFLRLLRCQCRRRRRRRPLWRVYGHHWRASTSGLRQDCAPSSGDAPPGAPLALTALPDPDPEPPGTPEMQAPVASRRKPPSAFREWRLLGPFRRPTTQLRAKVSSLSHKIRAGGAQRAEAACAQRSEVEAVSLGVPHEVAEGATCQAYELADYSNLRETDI
Description: NIMH PDSP secondary binding assay.

For test [5], the target named is β-3 (β-adrenergic receptor subtype 3) (Homo sapiens, UniProt P13945). Description: NIMH PDSP secondary binding assay.
In test [6] the target is D1 (dopamine receptor type 1) (Homo sapiens, UniProt P21728). Description: NIMH PDSP secondary binding assay.
Test [7] deals with H3 (histamine receptor type 3) (Homo sapiens, UniProt Q9Y5N1). The test can be described thus: NIMH PDSP secondary binding assay.
The target of test [8] is M1 (muscarinic acetylcholine receptor type 1) (Homo sapiens, UniProt P11229). The test can be described thus: NIMH PDSP secondary binding assay.
The target in test [9] is M5 (muscarinic acetylcholine receptor type 5) (Homo sapiens, UniProt P08912). Description: NIMH PDSP secondary binding assay.
In test [10] the target is NET (norepinephrine transporter) (Homo sapiens, UniProt P23975). The test can be described thus: NIMH PDSP secondary binding assay.
For test [11], the target named is SERT (serotonin transporter) (Homo sapiens, UniProt P31645). The test can be described thus: NIMH PDSP secondary binding assay.
For the next test, the system named is MDA-MB-231. The test can be described thus: Multiplex cytotoxicity assay. The format is cell-based. As to conditions: Homo sapiens, MDA-MB-231, read-out: IC50 MDA-MB-231.
The next test has as its system MCF-10A. The test can be described thus: Multiplex cytotoxicity assay. The format is cell-based. The following applies: Homo sapiens, read-out: IC50 MCF-10A.
The subject of the next test is A549. Description: Multiplex cytotoxicity assay. The following applies: Homo sapiens, A549, read-out: IC50 A549. The format is cell-based.
Another test concerns H1299. Description: Multiplex cytotoxicity assay. The following applies: Homo sapiens, NCI-H1299, read-out: IC50 H1299. The format is cell-based.
For a further test, the system named is HCT-15. Description: Multiplex cytotoxicity assay. The format is cell-based. As to conditions: Homo sapiens, HCT-15, read-out: IC50 HCT-15.
The next test relates to HT-29. The test can be described thus: Multiplex cytotoxicity assay. The format is cell-based. As to conditions: Homo sapiens, HT-29, read-out: IC50 HT-29.
The next test concerns caspases 3/7, 8, and 9. The test can be described thus: Caspase activation potential. The format is cell-based. As to conditions: data not shown.

The values that follow come from publication PMC3234165 (Biochemistry, 2011).

A value given as a limit tells only on which side of the number the result lay.

Sequence of M1 (muscarinic acetylcholine receptor type 1) (P11229 whole entry): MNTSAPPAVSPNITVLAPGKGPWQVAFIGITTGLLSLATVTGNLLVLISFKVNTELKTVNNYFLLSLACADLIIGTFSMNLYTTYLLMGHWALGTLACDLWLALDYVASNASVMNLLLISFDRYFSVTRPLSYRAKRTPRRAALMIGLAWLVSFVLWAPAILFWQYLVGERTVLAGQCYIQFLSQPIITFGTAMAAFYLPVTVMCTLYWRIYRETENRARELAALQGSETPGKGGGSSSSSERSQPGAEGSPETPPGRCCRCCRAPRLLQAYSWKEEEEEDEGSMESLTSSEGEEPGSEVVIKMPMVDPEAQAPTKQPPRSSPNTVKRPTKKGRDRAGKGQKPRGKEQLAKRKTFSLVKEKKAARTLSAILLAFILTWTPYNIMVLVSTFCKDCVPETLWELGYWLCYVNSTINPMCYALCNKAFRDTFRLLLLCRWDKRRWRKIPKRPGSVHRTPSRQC
Sequence of SERT (serotonin transporter) (P31645 whole entry, species assumed): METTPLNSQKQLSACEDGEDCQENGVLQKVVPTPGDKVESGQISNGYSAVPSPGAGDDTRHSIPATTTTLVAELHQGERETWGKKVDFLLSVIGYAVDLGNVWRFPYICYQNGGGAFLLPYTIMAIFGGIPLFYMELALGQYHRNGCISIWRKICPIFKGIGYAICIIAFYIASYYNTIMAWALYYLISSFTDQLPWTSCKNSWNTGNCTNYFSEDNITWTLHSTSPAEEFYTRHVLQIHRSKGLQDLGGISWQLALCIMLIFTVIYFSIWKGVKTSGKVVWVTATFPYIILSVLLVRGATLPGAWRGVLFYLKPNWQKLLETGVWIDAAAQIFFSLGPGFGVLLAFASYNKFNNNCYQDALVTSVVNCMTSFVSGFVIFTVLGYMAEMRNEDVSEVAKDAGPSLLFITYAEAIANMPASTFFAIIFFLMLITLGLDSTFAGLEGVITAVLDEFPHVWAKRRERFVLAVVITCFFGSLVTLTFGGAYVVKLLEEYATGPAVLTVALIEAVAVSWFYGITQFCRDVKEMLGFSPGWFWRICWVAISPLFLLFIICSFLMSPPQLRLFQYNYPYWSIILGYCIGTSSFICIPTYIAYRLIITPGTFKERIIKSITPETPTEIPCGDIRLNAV
Sequence of NET (norepinephrine transporter) (P23975 whole entry, species assumed): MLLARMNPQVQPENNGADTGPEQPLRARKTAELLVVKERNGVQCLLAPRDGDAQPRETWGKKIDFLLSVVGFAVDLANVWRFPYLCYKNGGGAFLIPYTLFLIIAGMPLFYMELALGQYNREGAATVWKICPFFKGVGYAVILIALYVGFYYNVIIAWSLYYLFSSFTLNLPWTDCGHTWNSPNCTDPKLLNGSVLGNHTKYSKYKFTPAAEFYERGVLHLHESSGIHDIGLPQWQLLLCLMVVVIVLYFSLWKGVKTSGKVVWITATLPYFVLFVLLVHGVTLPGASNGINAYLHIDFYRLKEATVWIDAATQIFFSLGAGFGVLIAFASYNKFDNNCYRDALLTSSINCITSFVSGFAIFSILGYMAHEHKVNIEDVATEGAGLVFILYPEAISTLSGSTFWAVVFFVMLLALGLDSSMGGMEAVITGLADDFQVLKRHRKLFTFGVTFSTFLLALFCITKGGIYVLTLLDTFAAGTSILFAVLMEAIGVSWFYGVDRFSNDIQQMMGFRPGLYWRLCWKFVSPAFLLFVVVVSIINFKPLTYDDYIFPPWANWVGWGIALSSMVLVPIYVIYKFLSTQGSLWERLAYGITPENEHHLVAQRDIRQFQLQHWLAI
Sequence of D1 (dopamine receptor type 1) (P21728 whole entry): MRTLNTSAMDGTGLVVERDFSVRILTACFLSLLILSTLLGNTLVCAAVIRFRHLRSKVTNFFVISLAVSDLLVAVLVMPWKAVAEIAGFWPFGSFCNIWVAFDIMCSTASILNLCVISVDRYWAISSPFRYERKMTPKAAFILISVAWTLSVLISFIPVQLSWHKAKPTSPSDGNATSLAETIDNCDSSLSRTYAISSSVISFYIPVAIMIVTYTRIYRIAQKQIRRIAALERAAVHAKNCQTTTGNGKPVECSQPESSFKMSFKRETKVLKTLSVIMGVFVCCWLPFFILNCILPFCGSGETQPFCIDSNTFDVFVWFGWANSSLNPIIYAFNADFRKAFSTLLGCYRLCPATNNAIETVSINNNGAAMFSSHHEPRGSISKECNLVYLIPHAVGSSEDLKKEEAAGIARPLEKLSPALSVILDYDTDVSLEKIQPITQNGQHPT
Sequence of M5 (muscarinic acetylcholine receptor type 5) (P08912 whole entry): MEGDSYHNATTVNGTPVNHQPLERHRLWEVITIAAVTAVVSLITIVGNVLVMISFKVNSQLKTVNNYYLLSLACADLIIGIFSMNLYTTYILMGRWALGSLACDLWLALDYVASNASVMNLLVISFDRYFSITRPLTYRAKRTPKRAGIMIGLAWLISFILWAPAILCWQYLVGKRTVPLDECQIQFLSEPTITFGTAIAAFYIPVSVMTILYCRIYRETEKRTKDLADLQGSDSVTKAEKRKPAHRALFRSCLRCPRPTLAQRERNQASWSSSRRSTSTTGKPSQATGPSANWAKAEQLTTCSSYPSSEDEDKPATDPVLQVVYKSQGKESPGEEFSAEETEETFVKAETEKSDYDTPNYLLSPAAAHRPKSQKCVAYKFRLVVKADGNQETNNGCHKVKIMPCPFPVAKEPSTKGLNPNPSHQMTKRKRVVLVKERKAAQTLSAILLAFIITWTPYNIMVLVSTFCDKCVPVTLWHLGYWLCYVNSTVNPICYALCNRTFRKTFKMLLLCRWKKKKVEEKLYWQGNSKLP
Sequence of H3 (histamine receptor type 3) (Q9Y5N1 whole entry): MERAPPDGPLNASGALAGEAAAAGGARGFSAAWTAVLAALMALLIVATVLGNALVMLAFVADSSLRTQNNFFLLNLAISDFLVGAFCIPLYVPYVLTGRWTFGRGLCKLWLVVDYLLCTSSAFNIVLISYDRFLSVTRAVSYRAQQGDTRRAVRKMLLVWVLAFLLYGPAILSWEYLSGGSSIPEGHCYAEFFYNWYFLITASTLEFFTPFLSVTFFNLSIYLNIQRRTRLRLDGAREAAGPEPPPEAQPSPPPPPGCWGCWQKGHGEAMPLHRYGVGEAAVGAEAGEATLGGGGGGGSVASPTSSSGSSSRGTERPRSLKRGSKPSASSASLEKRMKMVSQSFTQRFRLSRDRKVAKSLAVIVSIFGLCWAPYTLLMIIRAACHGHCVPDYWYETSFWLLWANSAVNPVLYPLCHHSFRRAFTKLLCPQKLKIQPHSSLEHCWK
Sequence of β-3 (β-adrenergic receptor subtype 3) (P13945 whole entry): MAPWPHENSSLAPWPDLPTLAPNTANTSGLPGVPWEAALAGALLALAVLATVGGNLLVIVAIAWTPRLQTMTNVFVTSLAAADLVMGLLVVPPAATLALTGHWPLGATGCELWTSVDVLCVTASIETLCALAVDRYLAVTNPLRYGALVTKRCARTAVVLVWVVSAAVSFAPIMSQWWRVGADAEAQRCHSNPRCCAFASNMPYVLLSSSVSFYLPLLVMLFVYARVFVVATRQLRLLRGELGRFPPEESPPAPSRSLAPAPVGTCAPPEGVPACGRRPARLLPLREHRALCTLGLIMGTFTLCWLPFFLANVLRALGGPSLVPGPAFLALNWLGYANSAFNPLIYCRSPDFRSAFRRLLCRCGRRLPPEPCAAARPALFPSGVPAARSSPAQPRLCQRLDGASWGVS
Sequence of Sig-1R, sigma-1 receptor (Q9R0C9 whole entry): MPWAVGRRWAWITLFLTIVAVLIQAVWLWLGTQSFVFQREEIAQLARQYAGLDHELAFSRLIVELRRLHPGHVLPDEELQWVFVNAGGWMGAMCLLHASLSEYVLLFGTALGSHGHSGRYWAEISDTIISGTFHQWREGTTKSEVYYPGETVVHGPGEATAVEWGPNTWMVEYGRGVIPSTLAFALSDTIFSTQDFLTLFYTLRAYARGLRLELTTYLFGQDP

For `CCCCCCCNCCCc1ccccc1` [2a, N-(3-Phenylpropyl)heptan-1-amine], the “KI sigma-2 sites” value in [1] is listed as “nanomolar affinities”. The sigma-2/sigma-1 in test [1] was determined as 2. The Ki on Sig-1R, sigma-1 receptor is 0.09 µM; on Sig-2R, sigma-2 receptor it was 0.25 µM; in test [2], 0.13 µM; in test [3], above 10 µM; in test [4], above 10 µM; in test [5], above 10 µM. In addition, the Ki in [6], in test [7], in test [8], in [9], in [10] and in test [11] was above 10 µM throughout. Also, the IC50 came to 33 ± 2 µM in the test with MDA-MB-231; 70 ± 5 µM with MCF-10A; 83 ± 11 µM in the test on A549; 39 ± 6 µM with H1299; 18 ± 12 µM in the test on HCT-15; 40 ± 1 µM in the test on HT-29. In the test with caspases 3/7, 8, and 9, the “activation of caspases 3/7, 8, and 9” value is “did not activate”.

For the compound `CCCCCCCCCCCCNCCCc1ccccc1` [3a, N-(3-Phenylpropyl)dodecan-1-amine], in [1], the “KI sigma-2 sites” value is “micromolar affinities”. In addition, the sigma-2/sigma-1 in [1] came to 0.4. Further, the Ki at Sig-1R, sigma-1 receptor was 1.5 µM; on Sig-2R, sigma-2 receptor, 3.6 µM; in test [2], above 10 µM; in test [3] it was above 10 µM; in test [4], above 10 µM; in test [5], above 10 µM. The inhibitory constant (Ki) in test [6], in test [7], in [8], in test [9], in test [10] and in [11] was above 10 µM in each case. Further, the IC50 in the test on MDA-MB-231 is 54 ± 3 µM; in the test on MCF-10A, 53 ± 18 µM; in the test on A549, 87 ± 70 µM; in the test on H1299, 39 ± 0.1 µM; with HCT-15 it was above 100 µM; in the test with HT-29, 42 ± 21 µM. For the same compound, the “activation of caspases 3/7, 8, and 9” value in the test with caspases 3/7, 8, and 9 is on record as “did not activate”.

Take `CCCCCCCCCCCCNCCCc1ccc([N+](=O)[O-])cc1` [3b, N-(3-(4-Nitrophenyl)propyl)dodecan-1-amine]: in test [1], the “KI sigma-2 sites” value is given as “micromolar affinities”. In test [1], the sigma-2/sigma-1 is 0.5. For the same compound, the Ki was 0.2 µM at Sig-1R, sigma-1 receptor; 0.27 µM on Sig-2R, sigma-2 receptor; 0.04 µM in test [2]; above 10 µM in test [3]; 9 µM in test [4]; above 10 µM in test [5]. Besides, the Ki in test [6] is above 10 µM; in [7], above 10 µM; in test [8] it was above 10 µM; in test [9] it was 3.6 µM; in test [10], above 10 µM; in [11] it was 0.7 µM. Besides, the half-maximal inhibitory concentration (IC50) amounted to 15 ± 1 µM with MDA-MB-231; 15 ± 1 µM in the test on MCF-10A; 29 ± 1 µM with A549; 13 ± 1 µM in the test with H1299; 25 µM in the test with HCT-15; 14 ± 0.2 µM with HT-29. In addition, the “activation of caspases 3/7, 8, and 9” value in the test with caspases 3/7, 8, and 9 was “did not activate”.
